Assay results as given in PubChem BioAssay AID2060893 (Molecular Pharmacology Branch, DTP, NCI, 2025).

system: K86415-001-R-J1-PDC complex spheroids, viability; test: Anticancer human tumor K86415-001-R-J1-PDC patient-derived lung adenocarcinoma cell line growth inhibition [RAS]; details: second compound 0.00316 µM; first compound 1 µM; active compounds read low
Procedure, shortened: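 Agents were tested in combination matrices in half-log decrements from a top concentration at or near clinical Cmax (10 microM if undetermined). Targets were multi-cell spheroids of tumour lines plus HUVEC and MSC stromal cells.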
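Further: spheroids exposed to agents for seven days before readout.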

Q: How did the viability, T/C turn out when C[C@@H](NC(=O)c1ncnc(N)c1Cl)c1ncc(C(=O)Nc2cc(C(F)(F)F)c(Cl)cn2)s1 + C=CC(=O)N1CCN(c2nc(OCC3CCCN3C)nc3c(F)c(-c4nc(N)cc(C)c4C(F)(F)F)c(Cl)cc23)C(C)C1 was run?
A: Its viability, T/C is 25.3%.

Q: How did the viability, T/C turn out when O=C(c1ccc(F)c(F)c1Nc1ccc(I)cc1F)N1CC(O)([C@@H]2CCCCN2)C1 + C=CC(=O)N1CCN(c2nc(OCC3CCCN3C)nc3c(F)c(-c4nc(N)cc(C)c4C(F)(F)F)c(Cl)cc23)C(C)C1 was run?
A: Its viability, T/C is 3.59%.

same assay, conditions: second compound 0.00316 µM; first compound 3.16 µM; active compounds read low

Q: Which viability, T/C does the source give for CC(C)NCC(C(=O)N1CCN(c2ncnc3c2C(C)CC3O)CC1)c1ccc(Cl)cc1 (stereo unspecified) + C=CC(=O)N1CCN(c2nc(OCC3CCCN3C)nc3c(F)c(-c4nc(N)cc(C)c4C(F)(F)F)c(Cl)cc23)C(C)C1 here?
A: The viability, T/C was 22.4%.

Q: Which viability, T/C does the source give for CC(Nc1ccc2c(c1)OCCn1cc(N3C(=O)OCC3C(F)F)nc1-2)C(N)=O (stereo unspecified) + C=CC(=O)N1CCN(c2nc(OCC3CCCN3C)nc3c(F)c(-c4nc(N)cc(C)c4C(F)(F)F)c(Cl)cc23)C(C)C1 here?
A: Its viability, T/C is 8.57%.

Q: For C[C@@H](NC(=O)c1ncnc(N)c1Cl)c1ncc(C(=O)Nc2cc(C(F)(F)F)c(Cl)cn2)s1 + C=CC(=O)N1CCN(c2nc(OCC3CCCN3C)nc3c(F)c(-c4nc(N)cc(C)c4C(F)(F)F)c(Cl)cc23)C(C)C1, which viability, T/C is on record?
A: Its viability, T/C is 19%.

same assay, conditions: second compound 0.00316 µM; first compound 10 µM; active compounds read low

Q: For CC(C)NCC(C(=O)N1CCN(c2ncnc3c2C(C)CC3O)CC1)c1ccc(Cl)cc1 (stereo unspecified) + C=CC(=O)N1CCN(c2nc(OCC3CCCN3C)nc3c(F)c(-c4nc(N)cc(C)c4C(F)(F)F)c(Cl)cc23)C(C)C1, which viability, T/C is on record?
A: The viability, T/C was 18.6%.

Q: For CC(Nc1ccc2c(c1)OCCn1cc(N3C(=O)OCC3C(F)F)nc1-2)C(N)=O (stereo unspecified) + C=CC(=O)N1CCN(c2nc(OCC3CCCN3C)nc3c(F)c(-c4nc(N)cc(C)c4C(F)(F)F)c(Cl)cc23)C(C)C1, which viability, T/C is on record?
A: Its viability, T/C is 4.65%.

Q: Which viability, T/C does the source give for C[C@@H](NC(=O)c1ncnc(N)c1Cl)c1ncc(C(=O)Nc2cc(C(F)(F)F)c(Cl)cn2)s1 + C=CC(=O)N1CCN(c2nc(OCC3CCCN3C)nc3c(F)c(-c4nc(N)cc(C)c4C(F)(F)F)c(Cl)cc23)C(C)C1 here?
A: The viability, T/C was 17.7%.

same assay, conditions: second compound 0.01 µM; first compound 0.000316 µM; active compounds read low

Q: With CC(C)n1nc(-c2ccc3oc(N)nc3c2)c2c(N)ncnc21 + C=CC(=O)N1CCN(c2nc(OCC3CCCN3C)nc3c(F)c(-c4nc(N)cc(C)c4C(F)(F)F)c(Cl)cc23)C(C)C1 as the compound, how does the viability, T/C read?
A: Its viability, T/C is 11.8%.

same assay, conditions: second compound 0.01 µM; first compound 0.001 µM; active compounds read low

Q: For CC(C)n1nc(-c2ccc3oc(N)nc3c2)c2c(N)ncnc21 + C=CC(=O)N1CCN(c2nc(OCC3CCCN3C)nc3c(F)c(-c4nc(N)cc(C)c4C(F)(F)F)c(Cl)cc23)C(C)C1, which viability, T/C is on record?
A: Its viability, T/C is 11.1%.

same assay, conditions: second compound 0.01 µM; first compound 0.00316 µM; active compounds read low

Q: How did the viability, T/C turn out when CC(C)n1nc(-c2ccc3oc(N)nc3c2)c2c(N)ncnc21 + C=CC(=O)N1CCN(c2nc(OCC3CCCN3C)nc3c(F)c(-c4nc(N)cc(C)c4C(F)(F)F)c(Cl)cc23)C(C)C1 was run?
A: Its viability, T/C is 11.4%.

Q: Which viability, T/C does the source give for O=C(c1ccc(F)c(F)c1Nc1ccc(I)cc1F)N1CC(O)([C@@H]2CCCCN2)C1 + C=CC(=O)N1CCN(c2nc(OCC3CCCN3C)nc3c(F)c(-c4nc(N)cc(C)c4C(F)(F)F)c(Cl)cc23)C(C)C1 here?
A: Its viability, T/C is 10.7%.

same assay, conditions: second compound 0.01 µM; first compound 0.01 µM; active compounds read low

Q: For CC(C)n1nc(-c2ccc3oc(N)nc3c2)c2c(N)ncnc21 + C=CC(=O)N1CCN(c2nc(OCC3CCCN3C)nc3c(F)c(-c4nc(N)cc(C)c4C(F)(F)F)c(Cl)cc23)C(C)C1, which viability, T/C is on record?
A: The viability, T/C was 9%.

Q: O=C(c1ccc(F)c(F)c1Nc1ccc(I)cc1F)N1CC(O)([C@@H]2CCCCN2)C1 + C=CC(=O)N1CCN(c2nc(OCC3CCCN3C)nc3c(F)c(-c4nc(N)cc(C)c4C(F)(F)F)c(Cl)cc23)C(C)C1 was tested. Which viability, T/C did it give?
A: The viability, T/C was 9.82%.

same assay, conditions: second compound 0.01 µM; first compound 0.0316 µM; active compounds read low

Q: With CC(C)NCC(C(=O)N1CCN(c2ncnc3c2C(C)CC3O)CC1)c1ccc(Cl)cc1 (stereo unspecified) + C=CC(=O)N1CCN(c2nc(OCC3CCCN3C)nc3c(F)c(-c4nc(N)cc(C)c4C(F)(F)F)c(Cl)cc23)C(C)C1 as the compound, how does the viability, T/C read?
A: Its viability, T/C is 13.2%.

Q: CC(C)n1nc(-c2ccc3oc(N)nc3c2)c2c(N)ncnc21 + C=CC(=O)N1CCN(c2nc(OCC3CCCN3C)nc3c(F)c(-c4nc(N)cc(C)c4C(F)(F)F)c(Cl)cc23)C(C)C1 was tested. Which viability, T/C did it give?
A: Its viability, T/C is 18.9%.

Q: For CC(Nc1ccc2c(c1)OCCn1cc(N3C(=O)OCC3C(F)F)nc1-2)C(N)=O (stereo unspecified) + C=CC(=O)N1CCN(c2nc(OCC3CCCN3C)nc3c(F)c(-c4nc(N)cc(C)c4C(F)(F)F)c(Cl)cc23)C(C)C1, which viability, T/C is on record?
A: The viability, T/C was 10.6%.

Q: Which viability, T/C does the source give for C[C@@H](NC(=O)c1ncnc(N)c1Cl)c1ncc(C(=O)Nc2cc(C(F)(F)F)c(Cl)cn2)s1 + C=CC(=O)N1CCN(c2nc(OCC3CCCN3C)nc3c(F)c(-c4nc(N)cc(C)c4C(F)(F)F)c(Cl)cc23)C(C)C1 here?
A: The viability, T/C was 14.8%.

Q: With O=C(c1ccc(F)c(F)c1Nc1ccc(I)cc1F)N1CC(O)([C@@H]2CCCCN2)C1 + C=CC(=O)N1CCN(c2nc(OCC3CCCN3C)nc3c(F)c(-c4nc(N)cc(C)c4C(F)(F)F)c(Cl)cc23)C(C)C1 as the compound, how does the viability, T/C read?
A: Its viability, T/C is 7.43%.

same assay, conditions: second compound 0.01 µM; first compound 0.1 µM; active compounds read low

Q: How did the viability, T/C turn out when CC(C)NCC(C(=O)N1CCN(c2ncnc3c2C(C)CC3O)CC1)c1ccc(Cl)cc1 (stereo unspecified) + C=CC(=O)N1CCN(c2nc(OCC3CCCN3C)nc3c(F)c(-c4nc(N)cc(C)c4C(F)(F)F)c(Cl)cc23)C(C)C1 was run?
A: The viability, T/C was 14.1%.

Q: For CC(C)n1nc(-c2ccc3oc(N)nc3c2)c2c(N)ncnc21 + C=CC(=O)N1CCN(c2nc(OCC3CCCN3C)nc3c(F)c(-c4nc(N)cc(C)c4C(F)(F)F)c(Cl)cc23)C(C)C1, which viability, T/C is on record?
A: Its viability, T/C is 6%.

Q: How did the viability, T/C turn out when CC(Nc1ccc2c(c1)OCCn1cc(N3C(=O)OCC3C(F)F)nc1-2)C(N)=O (stereo unspecified) + C=CC(=O)N1CCN(c2nc(OCC3CCCN3C)nc3c(F)c(-c4nc(N)cc(C)c4C(F)(F)F)c(Cl)cc23)C(C)C1 was run?
A: Its viability, T/C is 8.09%.

Q: Which viability, T/C does the source give for C[C@@H](NC(=O)c1ncnc(N)c1Cl)c1ncc(C(=O)Nc2cc(C(F)(F)F)c(Cl)cn2)s1 + C=CC(=O)N1CCN(c2nc(OCC3CCCN3C)nc3c(F)c(-c4nc(N)cc(C)c4C(F)(F)F)c(Cl)cc23)C(C)C1 here?
A: Its viability, T/C is 14.6%.

Q: Which viability, T/C does the source give for O=C(c1ccc(F)c(F)c1Nc1ccc(I)cc1F)N1CC(O)([C@@H]2CCCCN2)C1 + C=CC(=O)N1CCN(c2nc(OCC3CCCN3C)nc3c(F)c(-c4nc(N)cc(C)c4C(F)(F)F)c(Cl)cc23)C(C)C1 here?
A: Its viability, T/C is 7.21%.

same assay, conditions: second compound 0.01 µM; first compound 0.316 µM; active compounds read low

Q: Which viability, T/C does the source give for CC(C)NCC(C(=O)N1CCN(c2ncnc3c2C(C)CC3O)CC1)c1ccc(Cl)cc1 (stereo unspecified) + C=CC(=O)N1CCN(c2nc(OCC3CCCN3C)nc3c(F)c(-c4nc(N)cc(C)c4C(F)(F)F)c(Cl)cc23)C(C)C1 here?
A: The viability, T/C was 8.15%.

Q: CC(Nc1ccc2c(c1)OCCn1cc(N3C(=O)OCC3C(F)F)nc1-2)C(N)=O (stereo unspecified) + C=CC(=O)N1CCN(c2nc(OCC3CCCN3C)nc3c(F)c(-c4nc(N)cc(C)c4C(F)(F)F)c(Cl)cc23)C(C)C1 was tested. Which viability, T/C did it give?
A: The viability, T/C was 7.67%.
